Test results taken from patent EP3381907A1, “SYMMETRICAL 2-AMINOPHENYL-BENZAZOLYL-5-ACETATE COMPOUNDS AND THEIR USE AS ANTI-HEPARANASE” (Leadiant Biosciences SA, priority 2017, dated 2018).

Legend:
[1] = test system: U87MG (human glioblastoma astrocytoma); test: Matrigel cell invasion assay, U87MG; assay type: cell-based; conditions: Homo sapiens, U-87 MG, test compound at 2.5 µM, 24 h pre-treatment, 24 h invasion
Procedure: (§1) Heparanase inhibitors were then evaluated for their activity on the invasive potential of HT1080 (human fibrosarcoma), U87MG (human glioblastoma astrocytoma) and U2OS (human osteosarcoma) human cell lines, using the Matrigel cell invasion assay which allows to assess the cell invasion ability of malignant and normal cells.
(§2) Invasion assay was performed using BioCoat cell culture inserts (BioCoat 8.0µm PET Membrane 24 Well Permeable Supports, Corning). Filters were coated with 100 µl of 300 µg/ml Matrigel dissolved in coating buffer (0.01 M Tris pH 8.0, 0.7% NaCl) (Becton-Dickinson Sciences). DMEM (Dulbecco's Modified Eagle's Medium) containing 5% FBS was added to the lower chambers. Cells were pre-treated with heparanase inhibitors for 24 h, detached and added to the upper chambers in media containing the inhibitors. Cells were allowed to invade for 24 h at 37°C in a CO2 incubator and then unmigrated cells were removed from the upper chamber with a cotton swab. The invading cells were fixed, stained with 0.1% crystal violet for 10 min at room temperature, photographed and counted under inverted microscope.
(§3) Test compounds were analyzed at fixed concentration (2.5 µM) for several fields, in duplicates. Activity of test compounds was compared to the reference compound. Activity of most interesting compound was confirmed in a second cell invasion assay. Data were expressed as the percent invasion with respect to cell migration through uncoated insert membrane (see Table 3 below)
(§4) Table 3. […] In Invasion assay, data were expressed as the percent invasion (range) with respect to cell migration through uncoated insert membrane. In Adhesion assay, data were expressed as the percent of adhesion with respect to the control (100%). • Legend • ++: 50-90% • + : < 50% • - : Not Active

[2] = test system: U87MG (human glioblastoma astrocytoma); test: Cell adhesion assay on matrigel coated wells, U87MG; assay type: cell-based; conditions: test compound at 2.5 µM, percent of adhesion with respect to the control (100%)
Procedure: (§5) Cell surface, non-integrin molecules such as heparan sulfate proteoglycans (HSPGs) may be involved in the regulation of early adhesive stages of cell-ECM interactions. A cell adhesion assay has been employed to determine if the newly designed heparanase inhibitors were able to interfere with adhesion properties of cancer cells.
(§6) HT1080 (human fibrosarcoma) and U87MG (human glioblastoma astrocytoma) cells were treated for 18-20 h with test compounds in complete medium supplemented with 10% FCS. Then cells were collected, washed in complete medium, and added to matrigel coated wells in triplicate, at previously identified optimal seeding density, and incubated at 37 °C in complete medium for times ranging from 15 minutes to 4h, according to the cell line. After incubation, the wells were washed three times with serum-free medium and the remaining firmly attached cells were stained with crystal-violet 0.1%. Optical density was measured at 560 nm by Victor 3 (Perkin-Elmer) plate analyzer. Each experiment was repeated three times.
as §4

MMP-9 = test: Real-Time quantitative PCR of MMP-9 mRNA in HT1080 cells; assay type: cell-based, human; conditions: 24 h
Procedure: (§7) To evaluate the effect of heparanase inhibitors on the tumor transcription of genes encoding for proangiogenic factors, such as FGF1/2, VEGF, MMP-9, HSPE-1, the relative mRNA levels were analyzed by quantitative Real-Time Quantitative PCR. To perform the assay, HT1080 (human fibrosarcoma) cells were cultured in complete medium containing 10%FCS (fetal calf serum). Cells were plated in 24-well plates and treated at fixed concentration (i.e., highest non-toxic concentration) of test compounds. After 24 h, cells were detached, collected and total RNA extracted by RNeasy Mini Kit (QIAGEN). Following reverse transcription step, FGF1/2, VEGF, MMP-9, HSPE-1 mRNA levels, were quantified by qPCR using the advanced Universal SYBR Green Supermix (Bio Rad) and ABI PRISM 7900HT Thermal Cycler System (Perkin Elmer), according to the manufacturer's instructions. Appropriate no-RT and non-template controls were included in each 96-well PCR reaction, and dissociation analysis was performed at the end of each run to confirm the specificity of the reaction. Relative levels of RNA were calculated using the ddCt method. Standard curve and sample data were run in duplicate.
(§8) In the Table 5 a mean value is reported.

[3] = test system: HT1080 (human fibrosarcoma); test: SRB Cell Cytotoxicity Assay, HT1080; assay type: cell-based; conditions: HT-1080, HT1080, 72h treatment, read-out: Concentration (µM) of test compounds at which the cell growth is inhibited by 50 %. HT1080
From the text: (§9) SRB Cell Cytotoxicity Assay is an assay based upon the quantitative staining of cellular proteins by sulforhodamine B (SRB). This assay can be used for high-throughput drug screening (Vichai & Kirkitara, Nature Protocol. 2006, 1, 112). Sulforhodamine B is an anionic aminoxanthene dye that forms an electrostatic complex with the basic amino acid residues of proteins under moderately acid conditions, which provides a sensitive linear response.
(§10) To assess a putative antiproliferative activity of the selected compounds, HT1080 (human fibrosarcoma), U87MG (human glioblastoma astrocytoma) and U2OS (human osteosarcoma) cell lines were treated for 72h, in triplicate, with increasing concentrations of heparanase inhibitors. Inhibition of cell proliferation was then measured by the classical colorimetric SRB Cell Cytotoxicity assay. Absorbance was measured by spectrophotometer at a wavelength of 510 nm and cell proliferation was determined as percent with respect to control cells (cells treated with the vehicle alone). EC50 values were then determined by GraphPad Prism.

FGF-2 = test: Real-Time quantitative PCR of FGF-2 mRNA in HT1080 cells; assay type: cell-based, human; conditions: 24 h
Procedure: as §7, §8

FGF-1 = test: Real-Time quantitative PCR of FGF-1 mRNA in HT1080 cells; assay type: cell-based, human; conditions: 24 h
Procedure: as §7, §8

[4] = test system: U2OS (human osteosarcoma); test: SRB Cell Cytotoxicity Assay, U2OS; assay type: cell-based; conditions: 72h treatment, read-out: Concentration (µM) of test compounds at which the cell growth is inhibited by 50 %. U2OS
From the text: as §9, §10

HPSE-1 = test: Real-Time quantitative PCR of HPSE-1 mRNA in HT1080 cells; assay type: cell-based, human; conditions: 24 h
Procedure: as §7, §8

[5] = test system: HT1080 (human fibrosarcoma); test: Matrigel cell invasion assay, HT1080; assay type: cell-based; conditions: HT-1080, HT1080, test compound at 2.5 µM, 24 h pre-treatment, 24 h invasion
Procedure: as §1, §2, §3, §4

[6] = test system: U87MG (human glioblastoma astrocytoma); test: SRB Cell Cytotoxicity Assay, U87MG; assay type: cell-based; conditions: U-87 MG, 72h treatment, read-out: Concentration (µM) of test compounds at which the cell growth is inhibited by 50 %. U87MG
From the text: as §9, §10

[7] = test system: U2OS (human osteosarcoma); test: Matrigel cell invasion assay, U2OS; assay type: cell-based; conditions: Homo sapiens, test compound at 2.5 µM, 24 h pre-treatment, 24 h invasion
Procedure: as §1, §2, §3, §4

[8] = test system: HT1080 (human fibrosarcoma); test: Cell adhesion assay on matrigel coated wells, HT1080; assay type: cell-based; conditions: HT1080, test compound at 2.5 µM; percent of adhesion with respect to the control (100%)
Procedure: as §5, §6, §4

VEGF = test: Real-Time quantitative PCR of VEGF mRNA in HT1080 cells; assay type: cell-based, human; conditions: 24 h
Procedure: as §7, §8

| SMILES | inhibition at 2.5 µM [1] [%] | Adhesion Assay (%) U87MG [2] [%] | Gene Expression (% mRNA vs. control) MMP-9 (MMP-9; 2.5 uM) | EC50 [3] [µM] | Gene Expression (% mRNA vs. control) FGF-2 (FGF-2; 2.5 uM) | Gene Expression (% mRNA vs. control) FGF-1 (FGF-1; 2.5 uM) | EC50 [4] [µM] | Gene Expression (% mRNA vs. control) HPSE-1 (HPSE-1; 2.5 uM) | inhibition at 2.5 µM [5] [%] | EC50 [6] [µM] | inhibition at 2.5 µM [7] [%] | Adhesion Assay (%) HT1080 [8] [%] | Gene Expression (% mRNA vs. control) VEGF (VEGF; 2.5 uM) | Gene Expression (% mRNA vs. control) MMP-9 (MMP-9; 10.0 uM) | Gene Expression (% mRNA vs. control) FGF-2 (FGF-2; 10.0 uM) | Gene Expression (% mRNA vs. control) FGF-1 (FGF-1; 10.0 uM) | Gene Expression (% mRNA vs. control) HPSE-1 (HPSE-1; 10.0 uM) | Gene Expression (% mRNA vs. control) VEGF (VEGF; 10.0 uM) |
| --- | --- | --- | --- | --- | --- | --- | --- | --- | --- | --- | --- | --- | --- | --- | --- | --- | --- | --- |
| O=C(O)Cc1ccc2oc(-c3ccc(NC(=O)Nc4ccc(-c5nc6cc(CC(=O)O)ccc6o5)cc4F)c(F)c3)nc2c1 [Compound 20, 2,2'-(((Carbonylbis(azanediyl))bis(3-fluoro-4,1-phenylene))bis(benzo[d]oxazole-2,5-diyl))diacetic acid] | 50 to 90 | 64.90 | ∼ 70% | > 10 | ∼ 88% | ∼ 85% | > 10 | ∼ 100% | < 50 | > 10 | 50 to 90 | 83.25 | ∼ 72% |  |  |  |  |  |
| O=C(O)CNC(=O)Cc1ccc2oc(-c3ccc(NC(=O)Nc4ccc(-c5nc6cc(CC(=O)NCC(=O)O)ccc6o5)cc4F)c(F)c3)nc2c1 [Compound 25, 2,2'-((2,2'-(((Carbonylbis(azanediyl))bis(3-fluoro-4,1-phenylene))bis(benzo[d]oxazole-2,5-diyl))bis(acetyl))bis(azanediyl))diacetic acid] | 50 to 90 | 12.30 |  | > 10 |  |  | > 10 |  | 50 to 90 | > 10 | < 50 | 81.60 |  | ∼ 65% | ∼ 68% | ∼ 52% | ∼ 62% | ∼ 63% |
